Test results from article PMC8131842, “Therapeutic Potential of Vasoactive Intestinal Peptide and its Derivative Stearyl-Norleucine-VIP in Inflammation-Induced Osteolysis” (Frontiers in Pharmacology, 2021).

Legend:
rats [1] = assay: Study 001–1 acute subcutaneous toxicity in rats; type: in vivo, rat
Description: (§1) Toxicology. We performed toxicology studies for SNV that consisted of acute subcutaneous, intravenous and oral toxicity in rats, acute dermal toxicity in rabbits, skin sensitization using adjuvant and patch test in guinea pigs, and single and repeated (for 13 weeks) dose toxicity studies in rats. The latter was a 90-days repeated dose toxicity study, consisting of SNV once a day at three different doses to the penis and vagina of male and female rats, respectively. The compound was tested for the treatment of erectile dysfunction. The active dose (7 µg SNV) was chosen as the lowest dose for the study. The highest dosage group in the repeated dose toxicity study received 3,500 µg ([Gozes et al., 1994]). For study 001 (parts 1 through 3), the 1× dose consisted of 0.5 mg SNV dissolved in 7.1 ml vehicle (3.55 ml 10% Sefsol [glycerin monocaprylate] + 3.55 ml isopropanol) and 100µl/animal were administered; the 1000X dose consisted of 91 mg SNV dissolved in 1.3 ml vehicle (0.65 ml 10% Sefsol +0.65 ml isopropanol) and 100µl/animal were administered. For studies 002 through 004, the indicated doses of SNV (Table 1) were dissolved in 0.25 ml 10% Sefsol +0.25 ml 40% isopropanol (vehicle). The methodology for each of the toxicology studies is detailed in Table 1.

rats [2] = assay: Study 001–3 acute oral toxicity in rats; type: in vivo, rat
Description: as §1

[3] = Rat model of transepithelial penetrability (vaginal delivery of 125I-SNV, organ radioactivity); type: in vivo; conditions: 125I-labelled SNV
Text: Rat model of transepithelial penetrability. Because of the high hydrophobicity of SNV, we employed an iodination labeling protocol based on the Chloramine T method ([Markwell, 1982]) using 1 mCi Na^125I with a few modifications that included 1) the dissolution of SNV in dimethylformamide (DMF), 2) replacement of the phosphate buffer with 0.2 M HEPES (pH = 7.6), a more compatible buffer, and 3) reaction termination by the addition of sodium metabisulfite and KI. The pharmacokinetic profile of ^125I-SNV absorption and distribution was evaluated following vaginal delivery of the compound to rats. Wistar rats at the estrus phase received 50 µl (7.0 µCi/rat, 15 million CPM, 100 Ci/mM specific activity) of ^125I-SNV dissolved in 5% Sefsol, applied directly in the vagina, using a P100 micro pipettor. At the indicated time points, we anesthetized the rats with chloral hydrate and collected blood before cervical dislocation. We then harvested the uterus, liver, lungs, heart, intestine, kidneys and vagina (duplicate samples were taken from each organ). Organs were weighed and radioactivity levels were measured using a gamma counter. Each point on the chart represents at least two rats.
7.0 microCi/rat (15 million CPM, 100 Ci/mmole specific activity) of radioactive SNV was delivered in the vagina of rats at T0. Each point on the chart represents at least two rats. Levels of radioactivity were monitored over 250 min to assess the remaining amount of SNV in the vagina (A) versus its distribution in the indicated organs (B) as a measure of its penetrability through the vaginal epithelium. Data are Mean ± SD.

[4] = tested on: TiP-induced osteolysis on mouse calvaria; assay: TiP-induced osteolysis, mouse calvarial model (µCT); type: in vivo
Guinea pigs = assay: Study 003 skin sensitization: adjuvant and patch test; type: in vivo, guinea pig; conditions: SNV 7 mg/animal (1000X)
Description: as §1

[5] = tested on: histidine auxotrophs of Salmonella typhimurium; assay: Study 005 mutagenic potential (Ames test); type: cell-based
Description: Although, the studies were not carried out under Good Laboratory Practices (GLP) stipulations, SNV was synthesized under GLP conditions, and all the work was carried out at Tel Aviv University under meticulous conditions using professional staff and established methods (in a designated air-conditioned, clean room and specific luminary flow hood), which all strengthen the trustworthiness of the study results. Ames tests were carried out by Life Science Research Israel Ltd. Ness Ziona, Israel.

[6] = subcutaneous, 7 mg/rat (1000X, group 4)
[7] = oral, 7 µg/rat and 7 mg/rat groups
[8] = 7.0 µCi/rat in 5% Sefsol, vaginal delivery, Wistar rats at estrus, monitored over 250 min, gamma counter, at least two rats per point

For “Stearyl–HSDAVFTDNYTRLRKQ-Nle-AVKKYLNSILN-NH2 [SNV, Stearyl-norleucine-VIP, lipophilic VIP derivative with N-terminal stearic acid and norleucine in place of methionine at position 17]”, the “Acute median lethal subcutaneous dose” value (rats [1]; S.D. rats, 6 males + 6 females per group, single injection close to penile or vaginal tissue, 14 observation days, 7 mg/rat = maximal practical dose) was “Under the conditions of this study, the acute median lethal subcutaneous dose of SNV was found to be greater the 7 mg/rat, which is the maximal practical dose”, the Mortality (rats [1]; subcutaneous, 7 µg/rat (1×), 14 observation days) was “None” and the Mortality (rats [1]; subcutaneous, 7 mg/rat (1000X), 14 observation days) was “None”. For the same substance, the “Reactions: body weight” value (rats [1]; [6]) was “significant weight loss until 8th day, returning to original weight on day 12–14”, the “Reactions: diarrhea” value (rats [1]; [6]) was “Diarrhea in 2 males of group 4 (1000X) 5–24 after injection, lasting for 2 days” and the “Reactions: skin necrosis” value (rats [1]; subcutaneous, affected treatment group(s) not specified) was “Necrosis of abdominal (male only) or penile skin on day 13–14 after injection”. For the same substance, the “Acute median oral lethal dose” value (rats [2]; oral by metal catheter, S.D. rats, 6 males + 6 females per group, 7 mg/rat = maximal practical dose) was “Under the conditions of this study, the acute median oral lethal dose of SNV was found to be greater the 7 mg/rat, which is the maximal practical dose”, the Mortality (rats [2]; [7]) was “None” and the Reactions (rats [2]; [7]) was “None”. For the same substance, the “Levels of SNV in the blood, heart, lungs, liver, gut, uterus and kidneys (radioactivity)” value [3, 8] was “steadily increased”, the “Local levels of SNV in the vagina (radioactivity)” value [3, 8] was “decline over time” and the “Penetrability through the vaginal epithelium” value ([3]; vaginal delivery in rats, over 250 min) was “high penetrability”. The Calvaria thickness ([4]; 2 × 10^–8 mol SNV in fibrinogen-thrombin membrane with TiP, 5 weeks, µCT) was “no significant differences”, the “Lowering of pit resorption volume (PRV) vs Ti” value ([4]; mouse, in vivo) was 60% and the “Lowering of pit resorption volume as percentage of the total tissue volume (PRV/TV) vs Ti” value ([4]; mouse, in vivo) was 60%. For the same substance, the “Skin sensitization, conclusion” value (Guinea pigs; adjuvant and patch test) was “The study was designed to assess the degree of skin sensitization resulting from intradermal Freund’s complete adjuvant and patch application of SNV. The study showed that both SNV and vehicle alone have no skin sensitization properties”, the Mortality (Guinea pigs; adjuvant and patch test, daily applications for 3 days) was “None” and the Skin reactions (Guinea pigs; intradermal Freund's complete adjuvant and patch application, daily applications for 3 days, 3 males + 3 females per group) was “only slight erythema and edema within the application site”. For the same substance, the “Revertant colony numbers over control” value ([5]; 0.3 to 312.5 µg/plate) was “No significant increases in revertant colony numbers over control with test material at doses ranging from 0.3 to 312.5 µg/plate” and the “Mutagenic activity, conclusion” value ([5]; 0.3–312.5 µg/standard bacterial plate) was “Under the conditions of this study, the test material, SNV was devoid of mutagenic activity”.
